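Following 48 hours of exposure in 96-well plates, responses at five concentrations were used to interpolate endpoints linearly. GI50 is the concentration that inhibits growth by half. The concentration for full growth arrest is given as TGI.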
What was measured:
Assay in all cases: inhibition of tumour cell growth, NCI panel, 48 h
MOLT-4 leukemia = system: MOLT-4 leukemia
T-47D breast = system: T-47D breast
KM12 colon = system: KM12 colon
MALME-3M melanoma = system: MALME-3M melanoma
NCI-H23 lung = system: NCI-H23 lung
RXF 393 renal = system: RXF 393 renal
HCT-15 colon = system: HCT-15 colon
786-0 renal = system: 786-0 renal
HOP-62 NSCLC = system: HOP-62 NSCLC
SNB-19 CNS = system: SNB-19 CNS
NCI-H460 lung = system: NCI-H460 lung
ACHN renal = system: ACHN renal
LOX IMVI melanoma = system: LOX IMVI melanoma
SN12C renal = system: SN12C renal
OVCAR-5 ovarian = system: OVCAR-5 ovarian
RPMI-8226 leukemia = system: RPMI-8226 leukemia
HOP-92 NSCLC = system: HOP-92 NSCLC
UACC-257 melanoma = system: UACC-257 melanoma
PC-3 prostate = system: PC-3 prostate
NCI-H226 lung = system: NCI-H226 lung
SR leukemia = system: SR leukemia
A498 renal = system: A498 renal
MDA-MB-468 breast = system: MDA-MB-468 breast
SK-OV-3 ovarian = system: SK-OV-3 ovarian
SK-MEL-5 melanoma = system: SK-MEL-5 melanoma
A549 NSCLC = system: A549 NSCLC
SW-620 colon = system: SW-620 colon
HCC-2998 colon = system: HCC-2998 colon
HCT-116 colon = system: HCT-116 colon

O=c1oc2ccc(-c3ccc(F)cc3F)cc2c(=O)n1-c1ccc(F)cc1
TGI (MOLT-4 leukemia): 8.27 µM | GI50 (T-47D breast): 0.502 µM | TGI (T-47D breast): 4.32 µM | GI50 (KM12 colon): 3.07 µM | TGI (KM12 colon): 10.7 µM | GI50 (MALME-3M melanoma): 1.62 µM | TGI (MALME-3M melanoma): 5.34 µM | GI50 (NCI-H23 lung): 2.08 µM | TGI (NCI-H23 lung): 6.78 µM | GI50 (RXF 393 renal): 1.55 µM | TGI (RXF 393 renal): 5.63 µM | GI50 (HCT-15 colon): 2.91 µM | TGI (HCT-15 colon): > 100 µM | GI50 (786-0 renal): 5.51 µM | TGI (786-0 renal): 53.7 µM | GI50 (HOP-62 NSCLC): 2.39 µM | TGI (HOP-62 NSCLC): 6.93 µM | GI50 (SNB-19 CNS): 3.58 µM | TGI (SNB-19 CNS): > 100 µM | GI50 (NCI-H460 lung): 2.3 µM | TGI (NCI-H460 lung): 11.9 µM | GI50 (ACHN renal): 3.88 µM | TGI (ACHN renal): > 100 µM | GI50 (LOX IMVI melanoma): 3.21 µM | TGI (LOX IMVI melanoma): 11.2 µM | GI50 (SN12C renal): 2.12 µM | TGI (SN12C renal): 8.04 µM | GI50 (OVCAR-5 ovarian): 3.2 µM | TGI (OVCAR-5 ovarian): > 100 µM | GI50 (RPMI-8226 leukemia): 1.33 µM | TGI (RPMI-8226 leukemia): 7.13 µM | GI50 (HOP-92 NSCLC): 0.95 µM | TGI (HOP-92 NSCLC): 4.48 µM | GI50 (UACC-257 melanoma): 1.64 µM | TGI (UACC-257 melanoma): 6.78 µM | GI50 (PC-3 prostate): 2.8 µM | TGI (PC-3 prostate): 11.7 µM | GI50 (NCI-H226 lung): 1.45 µM | TGI (NCI-H226 lung): 6.5 µM | GI50 (SR leukemia): 2.45 µM | TGI (SR leukemia): > 100 µM | GI50 (A498 renal): 1.91 µM | TGI (A498 renal): 6.17 µM | GI50 (MDA-MB-468 breast): 1.87 µM | TGI (MDA-MB-468 breast): 5.67 µM | GI50 (SK-OV-3 ovarian): 2.15 µM | TGI (SK-OV-3 ovarian): 6.37 µM | GI50 (SK-MEL-5 melanoma): 0.799 µM | TGI (SK-MEL-5 melanoma): 2.3 µM | GI50 (A549 NSCLC): 3.25 µM | TGI (A549 NSCLC): > 100 µM | GI50 (SW-620 colon): 3.23 µM | TGI (SW-620 colon): > 100 µM | GI50 (HCC-2998 colon): 3.31 µM | TGI (HCC-2998 colon): 13.9 µM | GI50 (HCT-116 colon): 3.12 µM | TGI (HCT-116 colon): 18.8 µM

Reference: PubChem BioAssay (NCI)
